Legend:
[1] = target: Alpha-1B adrenergic receptor (Homo sapiens) (UniProt P35368); test: Inhibition of human alpha 1B receptor at 10 uM relative to control
[2] = Permeability of compound in MDCKII-LE cells; format: ADME, cell-based, Canis lupus familiaris; conditions: dog, MDCK; read-out: permeability
[3] = target: Endothelin receptor type B (Homo sapiens) (UniProt P24530); test: Inhibition of human ETB receptor at 10 uM relative to control
[4] = target: Melanocyte-stimulating hormone receptor (Homo sapiens) (UniProt Q01726); test: Inhibition of MC1 receptor (unknown origin) at 10 uM relative to control
[5] = target: 5-hydroxytryptamine receptor 7 (Homo sapiens) (UniProt P34969); test: Inhibition of human 5-HT7 receptor at 10 uM relative to control
[6] = target: Type-2 angiotensin II receptor (Homo sapiens) (UniProt P50052); test: Inhibition of human AT2 receptor at 10 uM relative to control
Homo sapiens [7] = species on record: Homo sapiens; test: Inhibition of human sigma receptor at 10 uM relative to control
Motilin receptor [8] = target: T1, Motilin receptor (Homo sapiens, UniProt O43193); test: Inhibition of human motilin receptor at 10 uM relative to control
[9] = target: Mitogen-activated protein kinase 14 (Homo sapiens) (UniProt Q16539); test: Inhibition of human P38alpha kinase at 10 uM relative to control
[10] = target: High affinity choline transporter 1 (Homo sapiens) (UniProt Q9GZV3); test: Inhibition of human choline transporter (CHT1) at 10 uM relative to control
[11] = target: Matrix metalloproteinase-9 (Homo sapiens) (UniProt P14780); test: Inhibition of human MMP-9 at 10 uM relative to control
[12] = target: cGMP-dependent 3',5'-cyclic phosphodiesterase (Homo sapiens) (UniProt O00408); test: Inhibition of human PDE2A1 at 10 uM relative to control
[13] = target: Histamine H4 receptor (Homo sapiens) (UniProt Q9H3N8); test: Inhibition of human H4 receptor at 10 uM relative to control
[14] = target: Neuropeptide Y receptor type 1 (Homo sapiens) (UniProt P25929); test: Inhibition of human Y1 receptor at 10 uM relative to control
[15] = Lipophilicity, logD of compound at pH 7.4; format: physicochemical; conditions: buffer
[16] = target: Platelet-activating factor receptor (Homo sapiens) (UniProt P25105); test: Inhibition of human PAF receptor at 10 uM relative to control
Homo sapiens [17] = species on record: Homo sapiens; test: Inhibition of Ca2+ channel L, verapamil site (unknown origin) at 10 uM relative to control
Motilin receptor [18] = target: T1, Motilin receptor; test: Inhibition of human motilin receptor
[19] = target: Adenosine receptor A1 (Homo sapiens) (UniProt P30542); test: Inhibition of human A1 receptor at 10 uM relative to control
MDA-MB-231 = test: Cytotoxicity against human MDA-MB-231 cells assessed as reduction in cell viability at <50 uM by alamar blue assay; format: toxicity, cell-based; conditions: mda-mb-231, 50 µM
[20] = target: Prostaglandin F2-alpha receptor (Homo sapiens) (UniProt P43088); test: Inhibition of human FP receptor at 10 uM relative to control
[21] = target: Alpha-2A adrenergic receptor (Homo sapiens) (UniProt P08913); test: Inhibition of human alpha 2A receptor at 10 uM relative to control
Homo sapiens [22] = species on record: Homo sapiens; test: Inhibition of central BZD receptor (unknown origin) at 10 uM relative to control
[23] = target: Estrogen receptor (Homo sapiens) (UniProt P03372); test: Inhibition of human ERalpha at 10 uM relative to control
[24] = target: Glucagon receptor (Homo sapiens) (UniProt P47871); test: Inhibition of human Glucagon receptor at 10 uM relative to control
[25] = target: Adenosine receptor A2b (Homo sapiens) (UniProt P29275); test: Inhibition of human A2B receptor at 10 uM relative to control
[26] = target: Substance-P receptor (Homo sapiens) (UniProt P25103); test: Inhibition of human NK1 receptor at 10 uM relative to control
[27] = target: Neuronal acetylcholine receptor; alpha4/beta2 (Homo sapiens) (UniProt P17787+P43681); test: Inhibition of human N neuronal alpha4 beta2 receptor at 10 uM relative to control; format: protein-complex assay
[28] = target: T2, Histone-lysine N-methyltransferase SETD7 (Homo sapiens, UniProt Q8WTS6); test: Binding affinity to biotinylated SETD7 (unknown origin) assessed as dissociation constant in presence of SAM in flow and wash buffer by SPR analysis
T2 sequence (Q8WTS6 whole entry): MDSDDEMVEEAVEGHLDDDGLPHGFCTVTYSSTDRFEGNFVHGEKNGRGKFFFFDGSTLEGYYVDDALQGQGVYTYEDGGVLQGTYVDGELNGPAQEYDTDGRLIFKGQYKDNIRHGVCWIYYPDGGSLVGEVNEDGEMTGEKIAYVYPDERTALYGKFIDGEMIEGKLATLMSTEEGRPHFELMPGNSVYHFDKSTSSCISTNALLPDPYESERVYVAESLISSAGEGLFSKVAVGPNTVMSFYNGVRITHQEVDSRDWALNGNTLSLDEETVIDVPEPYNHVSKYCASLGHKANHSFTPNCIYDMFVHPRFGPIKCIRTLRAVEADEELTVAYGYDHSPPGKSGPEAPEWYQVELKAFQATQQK

[29] = target: 5-hydroxytryptamine receptor 2B (Homo sapiens) (UniProt P41595); test: Inhibition of human 5-HT2B receptor at 10 uM relative to control
[30] = target: Bombesin receptor subtype-3 (Homo sapiens) (UniProt P32247); test: Inhibition of human BB3 receptor at 10 uM relative to control
[31] = target: cGMP-specific 3',5'-cyclic phosphodiesterase (Homo sapiens) (UniProt O76074); test: Inhibition of human PDE5 at 10 uM relative to control
[32] = target: D(2) dopamine receptor (Homo sapiens) (UniProt P14416); test: Inhibition of human D2S receptor at 10 uM relative to control
[33] = target: Delta-type opioid receptor (Homo sapiens) (UniProt P41143); test: Inhibition of human delta 2 opioid receptor at 10 uM relative to control
[34] = target: Prostacyclin receptor (Homo sapiens) (UniProt P43119); test: Inhibition of human IP (PGI2) receptor at 10 uM relative to control
[35] = target: Vascular endothelial growth factor receptor 1 (Homo sapiens) (UniProt P17948); test: Inhibition of human FLT-1 kinase (VEGFR1) at 10 uM relative to control
Homo sapiens [36] = species on record: Homo sapiens; test: Inhibition of GABA-gated Cl- channel (unknown origin) at 10 uM relative to control
[37] = target: Interstitial collagenase (Homo sapiens) (UniProt P03956); test: Inhibition of human MMP-1 at 10 uM relative to control
[38] = target: Glutamate receptor ionotropic AMPA (Homo sapiens) (UniProt P48058+P42263+P42262+P42261); test: Inhibition of human AMPA receptor at 10 uM relative to control; format: protein-complex assay
Homo sapiens [39] = species on record: Homo sapiens; test: Inhibition of Ca2+ channel L, diltiazem site(unknown origin) at 10 uM relative to control

T1 sequence (O43193 whole entry): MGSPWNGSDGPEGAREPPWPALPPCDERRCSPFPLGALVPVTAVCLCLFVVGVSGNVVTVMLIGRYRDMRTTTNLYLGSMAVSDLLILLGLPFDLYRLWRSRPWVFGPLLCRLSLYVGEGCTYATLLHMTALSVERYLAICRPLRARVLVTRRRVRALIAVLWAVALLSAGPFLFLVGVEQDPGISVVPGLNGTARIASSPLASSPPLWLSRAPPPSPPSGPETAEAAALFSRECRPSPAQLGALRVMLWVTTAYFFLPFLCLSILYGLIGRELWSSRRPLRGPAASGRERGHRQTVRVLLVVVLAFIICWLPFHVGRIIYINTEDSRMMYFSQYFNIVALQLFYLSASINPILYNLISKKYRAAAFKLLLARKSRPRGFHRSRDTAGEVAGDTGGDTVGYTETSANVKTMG
Substance-P receptor (Homo sapiens), sequence (P25103 whole entry): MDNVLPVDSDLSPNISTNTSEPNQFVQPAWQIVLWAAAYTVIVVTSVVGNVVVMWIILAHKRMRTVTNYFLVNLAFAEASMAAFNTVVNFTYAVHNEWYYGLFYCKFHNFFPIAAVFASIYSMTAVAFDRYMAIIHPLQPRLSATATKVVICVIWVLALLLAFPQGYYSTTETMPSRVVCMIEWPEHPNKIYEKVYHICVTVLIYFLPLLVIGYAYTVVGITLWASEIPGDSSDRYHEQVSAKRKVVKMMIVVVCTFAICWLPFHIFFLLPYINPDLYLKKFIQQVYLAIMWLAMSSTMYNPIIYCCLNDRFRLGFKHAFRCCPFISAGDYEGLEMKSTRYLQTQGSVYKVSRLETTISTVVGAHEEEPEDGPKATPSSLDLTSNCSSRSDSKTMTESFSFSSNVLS
D(2) dopamine receptor (Homo sapiens), sequence (P14416 whole entry): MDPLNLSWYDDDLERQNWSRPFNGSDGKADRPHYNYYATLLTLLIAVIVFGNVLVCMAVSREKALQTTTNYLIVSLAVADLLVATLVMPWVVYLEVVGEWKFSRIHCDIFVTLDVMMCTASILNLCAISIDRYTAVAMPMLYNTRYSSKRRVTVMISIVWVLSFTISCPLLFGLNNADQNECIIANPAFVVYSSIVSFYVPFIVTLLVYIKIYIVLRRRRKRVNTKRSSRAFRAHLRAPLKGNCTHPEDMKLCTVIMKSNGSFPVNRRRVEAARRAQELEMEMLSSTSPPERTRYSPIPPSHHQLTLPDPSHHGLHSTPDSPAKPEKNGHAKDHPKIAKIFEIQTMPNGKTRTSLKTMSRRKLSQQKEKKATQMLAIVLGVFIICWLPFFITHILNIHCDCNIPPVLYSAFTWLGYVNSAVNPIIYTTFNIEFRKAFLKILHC
Vascular endothelial growth factor receptor 1 (Homo sapiens), sequence (P17948 whole entry): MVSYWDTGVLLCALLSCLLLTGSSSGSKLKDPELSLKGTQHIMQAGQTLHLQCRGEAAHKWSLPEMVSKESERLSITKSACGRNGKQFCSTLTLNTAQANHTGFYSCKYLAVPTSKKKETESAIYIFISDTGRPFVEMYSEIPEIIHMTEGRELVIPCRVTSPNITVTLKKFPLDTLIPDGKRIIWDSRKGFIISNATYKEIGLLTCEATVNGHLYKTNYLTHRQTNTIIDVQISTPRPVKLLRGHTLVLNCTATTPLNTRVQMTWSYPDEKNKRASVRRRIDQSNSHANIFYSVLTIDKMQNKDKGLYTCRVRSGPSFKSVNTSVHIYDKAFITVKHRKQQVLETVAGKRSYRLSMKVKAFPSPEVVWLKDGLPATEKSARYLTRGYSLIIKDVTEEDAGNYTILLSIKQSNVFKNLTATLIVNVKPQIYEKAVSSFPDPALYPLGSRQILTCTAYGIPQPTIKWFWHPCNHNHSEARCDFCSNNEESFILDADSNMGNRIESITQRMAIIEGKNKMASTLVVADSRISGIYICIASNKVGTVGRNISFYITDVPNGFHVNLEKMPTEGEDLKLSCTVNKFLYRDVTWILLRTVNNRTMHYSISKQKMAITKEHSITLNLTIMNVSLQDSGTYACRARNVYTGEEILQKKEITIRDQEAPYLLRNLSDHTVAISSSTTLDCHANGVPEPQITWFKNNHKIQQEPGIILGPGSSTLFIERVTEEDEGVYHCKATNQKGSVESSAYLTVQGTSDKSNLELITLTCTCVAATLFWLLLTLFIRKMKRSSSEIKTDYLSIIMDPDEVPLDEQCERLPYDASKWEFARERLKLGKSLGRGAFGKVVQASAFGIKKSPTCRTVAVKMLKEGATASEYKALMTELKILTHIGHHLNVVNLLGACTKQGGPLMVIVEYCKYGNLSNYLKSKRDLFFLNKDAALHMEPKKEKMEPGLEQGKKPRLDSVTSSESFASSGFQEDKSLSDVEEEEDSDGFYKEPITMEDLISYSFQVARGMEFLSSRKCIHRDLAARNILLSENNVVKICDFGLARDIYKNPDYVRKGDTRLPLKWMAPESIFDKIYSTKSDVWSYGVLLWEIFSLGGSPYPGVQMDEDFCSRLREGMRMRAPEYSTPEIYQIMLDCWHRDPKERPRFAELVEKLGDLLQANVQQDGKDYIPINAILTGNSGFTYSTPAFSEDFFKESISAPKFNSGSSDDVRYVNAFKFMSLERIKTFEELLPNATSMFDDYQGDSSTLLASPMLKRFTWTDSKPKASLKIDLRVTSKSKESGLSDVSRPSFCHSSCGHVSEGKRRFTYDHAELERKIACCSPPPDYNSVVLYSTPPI
Endothelin receptor type B (Homo sapiens), sequence (P24530 whole entry): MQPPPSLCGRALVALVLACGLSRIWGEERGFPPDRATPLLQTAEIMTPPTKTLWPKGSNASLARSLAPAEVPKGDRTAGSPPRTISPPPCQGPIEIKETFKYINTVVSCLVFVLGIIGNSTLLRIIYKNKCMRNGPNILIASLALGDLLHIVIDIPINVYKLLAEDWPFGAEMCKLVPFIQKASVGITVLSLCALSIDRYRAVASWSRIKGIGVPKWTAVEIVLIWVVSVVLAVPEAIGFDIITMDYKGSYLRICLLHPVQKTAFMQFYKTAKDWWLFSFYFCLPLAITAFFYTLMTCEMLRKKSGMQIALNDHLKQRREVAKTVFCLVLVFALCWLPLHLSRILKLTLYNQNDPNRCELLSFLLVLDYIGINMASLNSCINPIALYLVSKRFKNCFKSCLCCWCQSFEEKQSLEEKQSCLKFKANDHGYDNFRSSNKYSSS
Matrix metalloproteinase-9 (Homo sapiens), sequence (P14780 whole entry): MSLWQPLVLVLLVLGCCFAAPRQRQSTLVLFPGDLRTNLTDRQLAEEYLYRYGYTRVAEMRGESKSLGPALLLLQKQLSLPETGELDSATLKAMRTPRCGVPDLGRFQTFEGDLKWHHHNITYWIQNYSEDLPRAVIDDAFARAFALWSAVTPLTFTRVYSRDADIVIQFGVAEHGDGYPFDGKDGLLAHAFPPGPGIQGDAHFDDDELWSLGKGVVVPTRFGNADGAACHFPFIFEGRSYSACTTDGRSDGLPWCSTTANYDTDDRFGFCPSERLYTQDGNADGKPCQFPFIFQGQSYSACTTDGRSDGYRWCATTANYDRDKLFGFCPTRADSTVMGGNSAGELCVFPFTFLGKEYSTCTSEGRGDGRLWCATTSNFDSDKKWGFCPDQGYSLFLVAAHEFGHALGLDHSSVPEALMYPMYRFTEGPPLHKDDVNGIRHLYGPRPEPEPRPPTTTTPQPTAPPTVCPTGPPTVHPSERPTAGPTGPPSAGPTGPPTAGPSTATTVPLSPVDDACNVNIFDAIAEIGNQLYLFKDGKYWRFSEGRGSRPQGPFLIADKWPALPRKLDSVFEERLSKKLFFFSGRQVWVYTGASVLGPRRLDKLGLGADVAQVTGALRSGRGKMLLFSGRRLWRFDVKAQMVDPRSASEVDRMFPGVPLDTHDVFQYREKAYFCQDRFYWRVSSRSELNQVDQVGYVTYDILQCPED
5-hydroxytryptamine receptor 7 (Homo sapiens), sequence (P34969 whole entry): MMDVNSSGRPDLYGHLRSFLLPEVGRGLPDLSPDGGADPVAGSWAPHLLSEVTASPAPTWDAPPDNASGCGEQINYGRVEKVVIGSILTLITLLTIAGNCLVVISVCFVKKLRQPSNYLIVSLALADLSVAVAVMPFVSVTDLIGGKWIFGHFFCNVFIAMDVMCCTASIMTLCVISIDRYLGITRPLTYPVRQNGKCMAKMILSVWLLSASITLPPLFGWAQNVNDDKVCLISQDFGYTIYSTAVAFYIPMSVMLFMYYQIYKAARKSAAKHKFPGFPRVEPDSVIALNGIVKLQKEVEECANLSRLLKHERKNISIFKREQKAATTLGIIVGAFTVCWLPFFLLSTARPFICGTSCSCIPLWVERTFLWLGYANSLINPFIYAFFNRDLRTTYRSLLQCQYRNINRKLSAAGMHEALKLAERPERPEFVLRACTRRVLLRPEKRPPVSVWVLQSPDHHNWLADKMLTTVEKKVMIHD
Adenosine receptor A1 (Homo sapiens), sequence (P30542 whole entry): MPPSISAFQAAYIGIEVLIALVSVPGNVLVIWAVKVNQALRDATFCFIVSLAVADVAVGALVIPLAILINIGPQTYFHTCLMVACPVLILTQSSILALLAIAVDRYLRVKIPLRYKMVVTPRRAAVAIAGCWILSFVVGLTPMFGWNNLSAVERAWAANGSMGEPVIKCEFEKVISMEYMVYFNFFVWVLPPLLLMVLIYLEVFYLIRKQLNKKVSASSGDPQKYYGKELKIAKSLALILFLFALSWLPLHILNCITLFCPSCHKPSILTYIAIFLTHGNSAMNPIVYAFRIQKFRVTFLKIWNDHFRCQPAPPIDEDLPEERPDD
Bombesin receptor subtype-3 (Homo sapiens), sequence (P32247 whole entry): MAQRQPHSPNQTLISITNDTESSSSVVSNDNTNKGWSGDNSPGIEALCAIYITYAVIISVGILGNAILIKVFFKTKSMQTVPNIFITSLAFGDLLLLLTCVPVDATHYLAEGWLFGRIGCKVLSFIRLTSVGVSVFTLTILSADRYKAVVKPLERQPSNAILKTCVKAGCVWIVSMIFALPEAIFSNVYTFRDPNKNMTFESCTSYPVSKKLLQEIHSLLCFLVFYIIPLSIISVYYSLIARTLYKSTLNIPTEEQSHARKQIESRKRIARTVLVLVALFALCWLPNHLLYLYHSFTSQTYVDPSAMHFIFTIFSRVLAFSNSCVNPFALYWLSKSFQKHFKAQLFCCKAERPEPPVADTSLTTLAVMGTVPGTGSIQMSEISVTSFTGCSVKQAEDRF

Structure (SMILES): O=C([C@@H](Cc1cccc(C(F)(F)F)c1)NS(=O)(=O)c1cc(F)c2c(c1)CCNC2)N1CCCC1
- inhibition [1]: 29%
- Papp [2]: 6.48 ×10⁻⁶ cm/s
- inhibition [3]: 12%
- inhibition [4]: 16%
- inhibition [5]: 41%
- inhibition [6]: 12%
- inhibition (Homo sapiens [7]): 49%
- inhibition (Motilin receptor [8]): 55%
- inhibition [9]: -6%
- inhibition [10]: 9%
- inhibition [11]: -9%
- inhibition [12]: -2%
- inhibition [13]: -2%
- inhibition [14]: -8%
- logD [15]: 2.3
- inhibition [16]: 6%
- inhibition (Homo sapiens [17]): 18%
- IC50 (Motilin receptor [18]): 7.2 µM
- inhibition [19]: -10%
- Activity (MDA-MB-231): Non-Toxic
- inhibition [20]: 3%
- inhibition [21]: 15%
- inhibition (Homo sapiens [22]): 11%
- inhibition [23]: -5%
- inhibition [24]: 1%
- inhibition [25]: -3%
- inhibition [26]: 43%
- inhibition [27]: -4%
- Kd [28]: 0.0042 µM
- inhibition [29]: 1%
- inhibition [30]: 61%
- inhibition [31]: 1%
- inhibition [32]: 39%
- inhibition [33]: 47%
- inhibition [34]: -7%
- inhibition [35]: 1%
- inhibition (Homo sapiens [36]): 28%
- inhibition [37]: 1%
- inhibition [38]: 2%
- inhibition (Homo sapiens [39]): 52%

From ChEMBL document CHEMBL5705898 (Proc Natl Acad Sci U S A, 2014)
